Patent publication EP3820512B1, “IMMUNOMODULATING COMPOSITIONS COMPRISING OLIGOSACCHARIDE DERIVATIVES” (priority 2018, dated 2020)
Entries after “also recorded” stand apart in the source; their conditions may differ.

How the values were obtained:
[1] = test system: THP-1 (human monocytic) cells; experiment: Cytokine response (IL-1β, TNF-α, IL-10) of THP-1 cells treated with compounds; format: cell-based; conditions: 100-200 µM
Experimental: When THP-1 (human monocytic) cells were treated with 100-200 µM of compounds 8, 14, 17, 23, 29, and 32, they produced an increased IL-1β and TNF-α response, decreased anti-inflammatory cytokine IL-10 (FIG. 4).

TLR7/8 = TLR7/8 modulation: cytokine ELISA in hPBMC, alone or with TLR7/8 ligand CL075; format: cell-based, human
Source text: Compound 8 modulates the TLR7/8 activities in a concentration dependent manner.

TLR1/2 = target: T1, TLR1/2 (Homo sapiens, UniProt O60603); experiment: TLR1/2 modulation: IL-6 ELISA in hPBMC with TLR1/2 ligand Pam3CSK4; format: cell-based
T1 construct: endogenous in cells; host or cells: hPBMC (human peripheral blood monocytes)
T1 sequence (O60603 21-784): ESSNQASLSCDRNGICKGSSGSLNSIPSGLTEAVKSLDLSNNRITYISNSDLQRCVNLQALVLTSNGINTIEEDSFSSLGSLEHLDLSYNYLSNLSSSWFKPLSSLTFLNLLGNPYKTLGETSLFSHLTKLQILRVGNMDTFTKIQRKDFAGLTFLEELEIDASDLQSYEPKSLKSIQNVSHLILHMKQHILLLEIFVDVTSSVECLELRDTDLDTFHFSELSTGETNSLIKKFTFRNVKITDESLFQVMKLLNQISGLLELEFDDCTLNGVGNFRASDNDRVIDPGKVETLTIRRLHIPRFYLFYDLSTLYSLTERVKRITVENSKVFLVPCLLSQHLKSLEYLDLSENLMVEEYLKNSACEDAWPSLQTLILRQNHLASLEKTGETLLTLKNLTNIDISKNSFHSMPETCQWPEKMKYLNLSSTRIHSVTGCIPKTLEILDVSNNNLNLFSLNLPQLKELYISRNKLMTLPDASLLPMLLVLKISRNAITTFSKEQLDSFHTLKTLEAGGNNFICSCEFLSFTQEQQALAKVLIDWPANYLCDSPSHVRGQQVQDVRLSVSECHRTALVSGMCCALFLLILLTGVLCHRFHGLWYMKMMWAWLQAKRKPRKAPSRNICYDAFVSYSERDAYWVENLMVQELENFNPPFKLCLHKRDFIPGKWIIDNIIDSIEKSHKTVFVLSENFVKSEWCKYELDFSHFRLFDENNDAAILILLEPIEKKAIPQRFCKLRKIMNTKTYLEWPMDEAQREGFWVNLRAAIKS
Source text: Compound 8 modulates the TLR1/2 activities in a concentration dependent manner.

TLR6 = target: T2, TLR6 (Homo sapiens, UniProt Q9Y2C9); experiment: TLR6 stimulation: IL-6 ELISA in hPBMC with TLR6 ligand Pam2CSK4; format: cell-based; conditions: in combination with Pam2CSK4, hPBMC, 24h
T2 construct: endogenous in cells; host or cells: hPBMC (human peripheral blood monocytes)
T2 sequence (Q9Y2C9 32-796): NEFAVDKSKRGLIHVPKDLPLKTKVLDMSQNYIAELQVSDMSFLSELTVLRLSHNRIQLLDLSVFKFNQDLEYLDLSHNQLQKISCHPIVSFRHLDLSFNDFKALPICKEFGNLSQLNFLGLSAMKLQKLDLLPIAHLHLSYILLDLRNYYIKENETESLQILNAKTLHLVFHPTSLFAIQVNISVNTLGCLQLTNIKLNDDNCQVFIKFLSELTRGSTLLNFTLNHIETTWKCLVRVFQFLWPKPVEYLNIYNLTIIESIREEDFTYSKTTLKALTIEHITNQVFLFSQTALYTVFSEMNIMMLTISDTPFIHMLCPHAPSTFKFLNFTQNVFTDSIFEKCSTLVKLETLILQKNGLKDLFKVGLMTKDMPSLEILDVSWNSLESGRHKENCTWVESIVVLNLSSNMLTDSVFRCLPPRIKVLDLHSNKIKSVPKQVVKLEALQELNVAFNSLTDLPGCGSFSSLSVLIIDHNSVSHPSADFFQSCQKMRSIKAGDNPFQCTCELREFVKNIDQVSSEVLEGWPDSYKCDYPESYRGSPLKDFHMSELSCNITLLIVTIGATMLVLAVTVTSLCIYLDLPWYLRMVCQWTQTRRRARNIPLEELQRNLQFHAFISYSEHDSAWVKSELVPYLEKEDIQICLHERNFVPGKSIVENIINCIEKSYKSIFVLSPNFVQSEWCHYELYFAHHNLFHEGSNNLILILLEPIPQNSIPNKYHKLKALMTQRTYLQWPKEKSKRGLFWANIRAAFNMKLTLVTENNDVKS
T2 sequence (O60603 21-784 partner): as the sequence (O60603 21-784) above
Experimental: Compound 8 stimulates the TLR6 activities and upregulates the production of IL-6 cytokine in combination with TLR6 ligand Pam2CSK4 in hPBMC after 24h of treatment as detected by ELISA (FIG. 9).

hPBMC = experiment: Cytotoxicity in hPBMC, MTT cell proliferation kit; format: cell-based, human; conditions: 0.1, 1.0, 10, 100 and 1000 µM, 24h
Experimental: The cells were treated with compounds and incubated for 24h. Cell viability was assessed using MTT cell proliferation kit (Promega).

[2] = test system: VEGF induced tube formation in HUVECs; experiment: Anti-angiogenic activity, Tube Formation kit, VEGF induced; format: cell-based, human; conditions: VEGF 100ng/mL
Experimental: Selected TLR2/4 antagonist compounds 2, 6, 7, 8, 14, 17 and 32 were evaluated for anti-angiogenic activity using the Tube Formation kit (Cat#3470-096-K). VEGF (100ng/mL) was used as positive control. These compounds have potential applications in diseases associated with pathological angiogenesis such as solid tumor, […], diabetic retinopathy as well as AMD.

[3] = test system: P. aeruginosa (ATCC-10145 GFP) infected skin wounds; experiment: Murine study of skin wound infection; format: in vivo, C57BL6 mice
Experimental: Five groups of C57BL/6 mice (8-10 weeks old, n = 4) were wounded on the dorsal surface. 25µl containing 10^6 CFU/mL P. aeruginosa in a PBS suspension were pipetted onto the wound and allowed to absorb for at least 3 min. […] Subsequently and for the next 13 days, infected wounds were treated each alternate day with colistin, or with test compounds.
Along with that less focal inflammation is observed in compound treated groups vs PA group.

[4] = test system: hyperoxia-induced lung injury in mice; experiment: Hyperoxia induced ALI model; format: in vivo, C57BL/6 mice
Experimental: (§1) Male C57BL/6 mice (Jackson Laboratories,) 12-15 weeks old, 25 - 28 gms, housed up to 5 per cage were used.
Hyperoxia induced ALI model: The ARDS model consists of exposing adult mice in 100% oxygen for 48h followed by injecting with test compounds. Adult mice (N=5) were housed in plexi chamber with a constant and continuous supply of 100% oxygen for 48h. […] The mice were sacrificed after 48 h to harvest lung tissues and collect (BAL) fluid.

[5] = test system: LPS induced lung injury in mice; experiment: LPS-induced ALI model; format: in vivo, C57BL/6 mice
Source text: as §1
The lungs were sectioned for histopathological assessment after H/E staining while the BAL fluid was used to detect total cell counts (neutrophils and macrophages) and measure protein (that exudes by leakage).

[6] = test system: hyperoxia induced BPD in mouse pups; experiment: Hyperoxia-exposed BPD mouse model (newborn pups); format: in vivo
Source text: Neonatal mice and humans undergo similar stages of lung development but differ with respect to the duration of each stage and its temporal relationship to gestational age. The lungs of the mouse born at term are in the saccular stage and are surfactant sufficient; this can be considered somewhat akin to a human preterm neonate in the same stage of lung development that has been exposed to a full complement of antenatal steroids (which is known to enhance surfactant production). In terms of mimicking the human condition, the most successful hyperoxia models are those that limit exposure to hyperoxia to the saccular stage of pulmonary development. The mouse BPD model involves exposing newborn mice (postnatal day 1 or PN1) to 100% oxygen till PN4 followed by recovery in room air (RA) for another 10 days.
After the recovery period, their lungs were harvested and processed for quantitative PCR, western blotting, histopathology and ELISA.
After the recovery period, their lungs were harvested and processed for quantitative PCR, western blotting and histopathology and ELISA.
BPD is characterized by large simplified alveoli, inflammation, increased cell death, decreased cell proliferation, dysmorphic capillary configuration, and variable interstitial cellularity and/or fibroproliferation. […] This is determined by measuring the alveolar chord length, septal thickness and radial alveolar count (RAC). In BPD, the alveolar area increases which is characterized by increase in the diameter of the alveolar sacs, the septa become thickened (thus interfering in gaseous exchange) and the RAC, a parameter used to assess the complexity of terminal respiratory unit by pulmonologists, decreases as a result of arrested lung development.

TLR4 [7] = target: T3, TLR4 (Homo sapiens, UniProt O00206); experiment: TLR4 modulation: IL-1β ELISA in hPBMC, alone or with TLR4 ligand LPS; format: cell-based; design: endogenous in cells
T3 sequence (O00206 24-839): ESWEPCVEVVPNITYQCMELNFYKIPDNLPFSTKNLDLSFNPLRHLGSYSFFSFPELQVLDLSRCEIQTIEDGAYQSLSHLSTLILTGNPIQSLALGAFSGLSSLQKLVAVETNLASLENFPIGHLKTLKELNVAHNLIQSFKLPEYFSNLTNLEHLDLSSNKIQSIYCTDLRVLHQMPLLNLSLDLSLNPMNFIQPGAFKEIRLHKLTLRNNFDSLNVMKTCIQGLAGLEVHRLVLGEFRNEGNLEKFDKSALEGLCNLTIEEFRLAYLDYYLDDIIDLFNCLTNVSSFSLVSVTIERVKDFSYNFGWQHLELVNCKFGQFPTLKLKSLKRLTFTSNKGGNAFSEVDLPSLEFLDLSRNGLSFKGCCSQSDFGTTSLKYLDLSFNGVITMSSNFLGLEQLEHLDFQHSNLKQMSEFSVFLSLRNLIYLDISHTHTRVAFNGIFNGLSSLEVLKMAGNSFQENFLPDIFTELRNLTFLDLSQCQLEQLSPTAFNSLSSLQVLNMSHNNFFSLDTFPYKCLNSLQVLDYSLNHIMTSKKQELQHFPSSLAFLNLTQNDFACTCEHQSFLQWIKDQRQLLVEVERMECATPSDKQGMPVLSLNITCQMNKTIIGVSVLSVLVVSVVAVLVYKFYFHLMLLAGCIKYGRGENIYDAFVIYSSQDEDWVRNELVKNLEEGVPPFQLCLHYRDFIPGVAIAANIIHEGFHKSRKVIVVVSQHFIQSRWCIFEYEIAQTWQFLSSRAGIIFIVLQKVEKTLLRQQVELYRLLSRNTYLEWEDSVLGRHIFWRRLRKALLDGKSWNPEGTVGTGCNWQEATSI
T3 sequence (Q9Y6Y9 17-160 partner limits assumed): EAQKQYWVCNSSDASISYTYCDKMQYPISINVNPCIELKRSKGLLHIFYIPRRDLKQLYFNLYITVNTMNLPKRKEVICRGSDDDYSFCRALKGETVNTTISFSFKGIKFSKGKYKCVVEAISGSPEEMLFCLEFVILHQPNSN
Source text: Compound 8 modulates the TLR4 activities in a concentration dependent manner.

TLR4 [8] = target: T3, TLR4; experiment: TLR4 inhibitory and activating activity in THP-1 cells at low and high concentrations; format: cell-based; design: endogenous in cells; host or cells: THP-1 (human monocytic) cells

**Q.** `CC(=O)N[C@H]1[C@H](Oc2ccc([N+](=O)[O-])cc2)O[C@H](CO)[C@@H](O)[C@@H]1O` [Compound 8, p-Nitrophenyl 2-acetamido-2-deoxy-β-D-glucopyranoside] was tested. Which IL-1β response [1] did it give?
**A.** increased

**Q.** What about the TNF-α response [1] of the same molecule?
**A.** increased

**Q.** And the “anti-inflammatory cytokine IL-10” value [1]?
**A.** decreased

**Q.** What about the IL-10 protein level (TLR7/8; 0.1 µM to <1 µM, alone or in combination with CL075, hPBMC, 24h, ELISA) of the same molecule?
**A.** downregulate

**Q.** And the “production of IL-1β” value (TLR7/8; 1.0 µM, alone and in combination with CL075, hPBMC)?
**A.** significantly stimulated

**Q.** And the IL-6 protein level (TLR1/2; 0.1 µM to <1 µM, in combination with Pam3CSK4, hPBMC, 24h, ELISA)?
**A.** downregulate

**Q.** And the “production of IL-6” value (TLR1/2; 1.0, 10 and 100 µM, in combination with CL075, hPBMC)?
**A.** significantly stimulated

**Q.** And the “production of IL-6 cytokine” value (TLR6)?
**A.** upregulates

**Q.** What about the “cytotoxicity in hPBMC (cell viability)” value (hPBMC) of the same molecule?
**A.** not toxic

**Q.** And the “VEGF induced tube formation” value [2]?
**A.** significantly decreased

**Q.** And the “CFU in tissues / bacterial counts” value ([3]; 13 days post infection, vs untreated control)?
**A.** decreased; also recorded: statistically significant reduction

**Q.** What about the “Re-epithelialization and granulation tissue” value ([3]; H&E histology, day 13 post-injury, vs controls, p=0.050 (Colistin, compound 1), p=0.073 (compound 8)) of the same molecule?
**A.** borderline non-significant

**Q.** What about the “closure of P. aeruginosa infected skin wounds” value ([3]; topical, each alternate day, day 13, compounds 100µM / 100µg /ml, Colistin 4µg/ml) of the same molecule?
**A.** effectively closed; also recorded: complete closure

**Q.** What about the “protection against hyperoxia induced lung injury” value ([4]; IP 10 mg/kg, two doses, 100% oxygen 48h) of the same molecule?
**A.** significant protection

**Q.** What about the hyperoxia-induced lung inflammation ([4]; IP injection) of the same molecule?
**A.** ameliorated

**Q.** What about the “protection against LPS induced lung injury” value ([5]; IP 10mg/kg at 4h and 12h post LPS, sacrifice after 24 h) of the same molecule?
**A.** significant protection

**Q.** What about the LPS-induced lung inflammation ([5]; IP injection) of the same molecule?
**A.** ameliorated

**Q.** And the IFN-Y ([6]; 10mg/kg, ELISA (FIG. 26))?
**A.** decreases

**Q.** And the IL-1β ([6]; 10mg/kg, ELISA (FIG. 26))?
**A.** decreases

**Q.** What about the IL-6 ([6]; 10mg/kg, ELISA (FIG. 26)) of the same molecule?
**A.** decreases

**Q.** And the IL-17 ([6]; 10mg/kg, ELISA (FIG. 26))?
**A.** decreases

**Q.** And the MCP-1 ([6]; 10mg/kg, ELISA (FIG. 26))?
**A.** decreases

**Q.** And the MIP-2 ([6]; 10mg/kg, ELISA (FIG. 26))?
**A.** decreases

**Q.** And the TNF-α ([6]; 10mg/kg, ELISA (FIG. 26))?
**A.** decreases

**Q.** What about the “anti-inflammatory cytokine IL-10” value ([6]; 10mg/kg, ELISA (FIG. 26H)) of the same molecule?
**A.** increase

**Q.** What about the “hyperoxia induced BPD” value ([6]; IP and IV, saline solution, 5mg/kg or 10 mg/kg on PN2 and PN4 (FIG. 24)) of the same molecule?
**A.** prevent

**Q.** And the chord length ([6]; IP injection (FIG. 25))?
**A.** improvement

**Q.** And the radial alveolar count ([6]; IP injection (FIG. 25))?
**A.** improvement

**Q.** What about the septal thickness ([6]; IP injection (FIG. 25)) of the same molecule?
**A.** improvement

**Q.** What about the “Inflammatory cytokines in lung tissue and serum” value ([6]; after injections) of the same molecule?
**A.** decreased

**Q.** And the “TLR4 inhibition in vivo” value ([6]; neonatal pups with BPD)?
**A.** inhibit

**Q.** What about the lung architecture ([6]; saline (IV) and nanosuspension (IN) formulation) of the same molecule?
**A.** restored

**Q.** And the IL-1β protein level (TLR4 [7]; 0.1 µM to <1 µM, alone or in combination with LPS, 24h, ELISA)?
**A.** downregulate

**Q.** And the “production of IL-1β” value (TLR4 [7]; 1.0 µM, alone and in combination with LPS)?
**A.** significantly stimulated

**Q.** What about the “% inhibition over control TLR4” value (TLR4 [8]; Concentration 1-10 µM, THP-1 cells) of the same molecule?
**A.** +++ (+++ means that the % of inhibition or activation is in the range of 75-95%)

**Q.** What about the “% activation over control TLR4” value (TLR4 [8]; Concentration 75-100 µM, THP-1 cells) of the same molecule?
**A.** ++ (++ means that the % of inhibition or activation is in the range of 25-75%)

**Q.** What about the TLR4 modulatory activity (TLR4 [8]; summary in words) of the same molecule?
**A.** concentration dependent TLR4 modulatory activity
